# Experimental data: patent US7517857B2, “Immune-modulating peptide” (POSCO, priority 2002, dated 2009)
# Where a SMILES comes first, the peptide text is derived from it. [ ]: non-standard residue; d: D form.
# Tested on: CT26, colon carcinoma
# Assay: Tumor growth in CT26-injected Balb/c mice
# Format: in vivo
# Details: FIGS. 9A and 9B
# Experimental: CT26, EL4 were maintained at 37° C. in a humidified 5% CO2 atmosphere in RPMA1640 medium supplemented with 20% (vol/vol) heat-inactivated fetal bovine serum. For animal experiments, the cells were passaged two to five times after re-growth from frozen stocks. Log phase CT26 cells were detached from tissue culture flasks with 0.25% trypsin and 0.03% EDTA. CT26 and EL4 were washed and resuspended in PBS immediately before injection.
# In order to assess the antitumor effect of immuno-modulating peptide, Trp-Arg-Tyr-Met-Val-D-Met-CONH2, (WRYMVm; (SEQ ID NO: 4)), CT26, colon carcinoma was tested in Balb/c mice model. Tumor mass was measured in size every two days after 6 days from tumor cell inoculation.
# To find the effective tumor-suppressing dose of WRYMVm, 0.1 μg/mouse, 0.25 μg/mouse, and 1 μg/mouse of WRYMVm were administered to CT26/Balb/c model. […] A similar phenomenon is easily found in chemotactic migration of leukocytes. In view of the fact that FPRL1, which is a target receptor for WRYMVm, is related to the chemotactic migration event, it is concluded that WRYMVm-induced antitumor effect might be derived from leukocyte infiltration event. Therefore, it is quite necessary to reveal the direct relationship between the WRYMVm-induced antitumor effect and the leukocyte infiltration event.
compound,measurement,value
"CSCC[C@H](NC(=O)[C@H](CCCNC(=N)N)NC(=O)[C@H](CCCCN)NC(=O)[C@@H](N)Cc1c[nH]c2ccccc12)C(=O)N[C@H](C(=O)N[C@H](CCSC)C(N)=O)C(C)C [WKRMVm-NH2, Trp-Lys-Arg-Met-Val-D-Met-NH2] (H-WKRMV[dM]-NH2; N-terminus assumed)",tumor growth in CT26-injected mice (figure legend),attenuates tumor growth
